Legend:
wild oat [1] = experiment: Test Example 4: herbicidal effect by soil treatment (Table 19, symbol I); assay type: in vivo, wild oat (Avena fatua); details: amount of applied herbicide 320 g/ha
In short: (§1)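 Herbicidal effect was rated 3 weeks after treatment, using the scoring criteria of an earlier test. The compound, formulated as an emulsion and diluted in water to a set herbicide amount, had been sprayed uniformly on soil over freshly sown seeds. Growth took place in a greenhouse at 25° C. to 30° C.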

velvetleaf [2] = experiment: Test Example 4: herbicidal effect by soil treatment (Table 19, symbol M); assay type: in vivo, velvetleaf (Abutilon theophrasti); details: amount of applied herbicide 320 g/ha
In short: as §1

green foxtail [3] = experiment: Test Example 4: herbicidal effect by soil treatment (Table 19, symbol G); assay type: in vivo, green foxtail (Setaria viridis); details: amount of applied herbicide 320 g/ha
In short: as §1

Italian ryegrass [4] = experiment: Test Example 4: herbicidal effect by soil treatment (Table 19, symbol K); assay type: in vivo, Italian ryegrass (Lolium multiflorum); details: amount of applied herbicide 320 g/ha
In short: as §1

barnyard grass [5] = experiment: Test Example 3: herbicidal effect by foliage application, Wagner pot (Table 18, symbol H); assay type: in vivo, barnyard grass (Echinochloa crus-galli); details: 320 g/ha
In short: (§2)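 Plants were sown in alluvial soil held under 0.1–0.5 cm standing water and grown 14 days in a greenhouse at 25–30 °C. An emulsifiable formulation, water-diluted to the set dose, was then sprayed onto the foliage, and effects were scored three weeks later using previously defined criteria.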

chickweed [6] = experiment: Test Example 4: herbicidal effect by soil treatment (Table 19, symbol P); assay type: in vivo, common chickweed (Stellaria media); details: amount of applied herbicide 320 g/ha
In short: as §1

lambsquarters [7] = experiment: Test Example 4: herbicidal effect by soil treatment (Table 19, symbol O); assay type: in vivo, lambsquarters (Chenopodium album); details: amount of applied herbicide 320 g/ha
In short: as §1

wild oat [8] = experiment: Test Example 5: herbicidal effect by foliage application, plastic box (Table 20, symbol I); assay type: in vivo, wild oat (Avena fatua); details: foliage application, 320 g/ha, three weeks after application
In short: (§3)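 Foliar spray test: emulsion formulation diluted in water to a set application rate, sprayed onto 14-day-old plants raised in diluvial soil at 25° C to 30° C under glass. Both herbicidal effect and crop effect rated visually three weeks later.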

green foxtail [9] = experiment: Test Example 5: herbicidal effect by foliage application, plastic box (Table 20, symbol G); assay type: in vivo, green foxtail (Setaria viridis); details: foliage application, 320 g/ha, three weeks after application
In short: as §3

windgrass [10] = experiment: Test Example 5: herbicidal effect by foliage application, plastic box (Table 20, symbol L); assay type: in vivo, windgrass (Apera spica-venti); details: foliage application, 320 g/ha, three weeks after application
In short: as §3

Italian ryegrass [11] = experiment: Test Example 5: herbicidal effect by foliage application, plastic box (Table 20, symbol K); assay type: in vivo, Italian ryegrass (Lolium multiflorum); details: foliage application, 320 g/ha, three weeks after application
In short: as §3

chickweed [12] = experiment: Test Example 5: herbicidal effect by foliage application, plastic box (Table 20, symbol P); assay type: in vivo, common chickweed (Stellaria media); details: foliage application, 320 g/ha, three weeks after application
In short: as §3

blackgrass [13] = experiment: Test Example 5: herbicidal effect by foliage application, plastic box (Table 20, symbol J); assay type: in vivo, blackgrass (Alopecurus myosuroides); details: foliage application, 320 g/ha, three weeks after application
In short: as §3

Chinese sprangletop = experiment: Test Example 3: herbicidal effect by foliage application, Wagner pot (Table 18, symbol D); assay type: in vivo, chinese sprangletop (Leptochloa chinensis); details: 320 g/ha
In short: as §2

blackgrass [14] = experiment: Test Example 4: herbicidal effect by soil treatment (Table 19, symbol J); assay type: in vivo, blackgrass (Alopecurus myosuroides); details: amount of applied herbicide 320 g/ha
In short: as §1

windgrass [15] = experiment: Test Example 4: herbicidal effect by soil treatment (Table 19, symbol L); assay type: in vivo, windgrass (Apera spica-venti); details: amount of applied herbicide 320 g/ha
In short: as §1

redroot pigweed [16] = experiment: Test Example 5: herbicidal effect by foliage application, plastic box (Table 20, symbol N); assay type: in vivo, redroot pigweed (Amaranthus retroflexus); details: foliage application, 320 g/ha, three weeks after application
In short: as §3

rice flat sedge = experiment: Test Example 3: herbicidal effect by foliage application, Wagner pot (Table 18, symbol E); assay type: in vivo, rice flat sedge (Cyperus iria); details: 320 g/ha
In short: as §2

redroot pigweed [17] = experiment: Test Example 4: herbicidal effect by soil treatment (Table 19, symbol N); assay type: in vivo, redroot pigweed (Amaranthus retroflexus); details: amount of applied herbicide 320 g/ha
In short: as §1

velvetleaf [18] = experiment: Test Example 5: herbicidal effect by foliage application, plastic box (Table 20, symbol M); assay type: in vivo, velvetleaf (Abutilon theophrasti); details: foliage application, 320 g/ha, three weeks after application
In short: as §3

false cleavers = experiment: Test Example 4: herbicidal effect by soil treatment (Table 19, symbol Q); assay type: in vivo, false cleavers (Galium spurium); details: amount of applied herbicide 320 g/ha
In short: as §1

persian speedwell [19] = experiment: Test Example 5: herbicidal effect by foliage application, plastic box (Table 20, symbol R); assay type: in vivo, Persian speedwell (Veronica persica); details: foliage application, 320 g/ha, three weeks after application
In short: as §3

southern crabgrass [20] = experiment: Test Example 5: herbicidal effect by foliage application, plastic box (Table 20, symbol F); assay type: in vivo, southern crabgrass (Digitaria ciliaris); details: foliage application, 320 g/ha, three weeks after application
In short: as §3

lambsquarters [21] = experiment: Test Example 5: herbicidal effect by foliage application, plastic box (Table 20, symbol O); assay type: in vivo, lambsquarters (Chenopodium album); details: foliage application, 320 g/ha, three weeks after application
In short: as §3

barnyard grass [22] = experiment: Test Example 4: herbicidal effect by soil treatment (Table 19, symbol H); assay type: in vivo, barnyard grass (Echinochloa crus-galli); details: amount of applied herbicide 320 g/ha
In short: as §1

southern crabgrass [23] = experiment: Test Example 4: herbicidal effect by soil treatment (Table 19, symbol F); assay type: in vivo, southern crabgrass (Digitaria ciliaris); details: amount of applied herbicide 320 g/ha
In short: as §1

persian speedwell [24] = experiment: Test Example 4: herbicidal effect by soil treatment (Table 19, symbol R); assay type: in vivo, Persian speedwell (Veronica persica); details: amount of applied herbicide 320 g/ha
In short: as §1

barnyard grass [25] = experiment: Test Example 5: herbicidal effect by foliage application, plastic box (Table 20, symbol H); assay type: in vivo, barnyard grass (Echinochloa crus-galli); details: foliage application, 320 g/ha, three weeks after application
In short: as §3

## CCCC(=O)Oc1c(C)nn(C)c(=O)c1-c1c(-c2ccc(F)cc2SC)sc2ccccc12 [1-064]
Wild oat [1]
  herbicidal effect rating, I: wild oat: 0 (Herbicidal rate of 5% or less (almost no effect))
Velvetleaf [2]
  herbicidal effect rating, M: velvetleaf: 0 (Herbicidal rate of 5% or less (almost no effect))
Green foxtail [3]
  herbicidal effect rating, G: green foxtail: 0 (Herbicidal rate of 5% or less (almost no effect))
Italian ryegrass [4]
  herbicidal effect rating, K: Italian ryegrass: 0 (Herbicidal rate of 5% or less (almost no effect))
Barnyard grass [5]
  herbicidal effect on H (barnyard grass), rating 0-5: 3 (Herbicidal rate of 40% or more and less than 70%)
Chickweed [6]
  herbicidal effect rating, P: chickweed: 3 (Herbicidal rate of 40% or more and less than 70%)
Lambsquarters [7]
  herbicidal effect rating, O: lambsquarters: 0 (Herbicidal rate of 5% or less (almost no effect))
Wild oat [8]
  herbicidal effect grade, I: wild oat: 0 (Herbicidal rate of 5% or less (almost no effect))
Green foxtail [9]
  herbicidal effect grade, G: green foxtail: 0 (Herbicidal rate of 5% or less (almost no effect))
Windgrass [10]
  herbicidal effect grade, L: windgrass: 0 (Herbicidal rate of 5% or less (almost no effect))
Italian ryegrass [11]
  herbicidal effect grade, K: Italian ryegrass: 0 (Herbicidal rate of 5% or less (almost no effect))
Chickweed [12]
  herbicidal effect grade, P: chickweed: 4 (Herbicidal rate of 70% or more and less than 90%)
Blackgrass [13]
  herbicidal effect grade, J: blackgrass: 0 (Herbicidal rate of 5% or less (almost no effect))
Chinese sprangletop
  herbicidal effect on D (Chinese sprangletop), rating 0-5: 0 (Herbicidal rate of 5% or less (almost no effect))
Blackgrass [14]
  herbicidal effect rating, J: blackgrass: 0 (Herbicidal rate of 5% or less (almost no effect))
Windgrass [15]
  herbicidal effect rating, L: windgrass: 0 (Herbicidal rate of 5% or less (almost no effect))
Redroot pigweed [16]
  herbicidal effect grade, N: redroot pigweed: 0 (Herbicidal rate of 5% or less (almost no effect))
Rice flat sedge
  herbicidal effect on E (rice flat sedge), rating 0-5: 3 (Herbicidal rate of 40% or more and less than 70%)
Redroot pigweed [17]
  herbicidal effect rating, N: redroot pigweed: 0 (Herbicidal rate of 5% or less (almost no effect))
Velvetleaf [18]
  herbicidal effect grade, M: velvetleaf: 0 (Herbicidal rate of 5% or less (almost no effect))
False cleavers
  herbicidal effect rating, Q: false cleavers: 0 (Herbicidal rate of 5% or less (almost no effect))
Persian speedwell [19]
  herbicidal effect grade, R: persian speedwell: 0 (Herbicidal rate of 5% or less (almost no effect))
Southern crabgrass [20]
  herbicidal effect grade, F: southern crabgrass: 0 (Herbicidal rate of 5% or less (almost no effect))
Lambsquarters [21]
  herbicidal effect grade, O: lambsquarters: 0 (Herbicidal rate of 5% or less (almost no effect))
Barnyard grass [22]
  herbicidal effect rating, H: barnyard grass: 0 (Herbicidal rate of 5% or less (almost no effect))
Southern crabgrass [23]
  herbicidal effect rating, F: southern crabgrass: 0 (Herbicidal rate of 5% or less (almost no effect))
Persian speedwell [24]
  herbicidal effect rating, R: persian speedwell: 0 (Herbicidal rate of 5% or less (almost no effect))
Barnyard grass [25]
  herbicidal effect grade, H: barnyard grass: 0 (Herbicidal rate of 5% or less (almost no effect))

## Cc1nn(C)c(=O)c(-c2c(-c3ccc(SCC#N)cc3)sc3ccc(F)cc23)c1O [2-423]
Wild oat [1]
  herbicidal effect, I: wild oat: 0 (Herbicidal rate of 5% or less (almost no effect))
Velvetleaf [2]
  herbicidal effect, M: velvetleaf: 1 (Herbicidal rate of 5% or more and less than 20%)
Green foxtail [3]
  herbicidal effect, G: green foxtail: 4 (Herbicidal rate of 70% or more and less than 90%)
Italian ryegrass [4]
  herbicidal effect, K: Italian ryegrass: 3 (Herbicidal rate of 40% or more and less than 70%)
Chickweed [6]
  herbicidal effect, P: chickweed: 5 (Herbicidal rate of 90% or more (almost completely withered))
Lambsquarters [7]
  herbicidal effect, O: lambsquarters: 4 (Herbicidal rate of 70% or more and less than 90%)
Wild oat [8]
  I: wild oat, herbicidal effect grade: 5 (Herbicidal rate of 90% or more (almost completely withered))
Green foxtail [9]
  G: green foxtail, herbicidal effect grade: 5 (Herbicidal rate of 90% or more (almost completely withered))
Windgrass [10]
  L: windgrass, herbicidal effect grade: 5 (Herbicidal rate of 90% or more (almost completely withered))
Italian ryegrass [11]
  K: Italian ryegrass, herbicidal effect grade: 5 (Herbicidal rate of 90% or more (almost completely withered))
Chickweed [12]
  P: chickweed, herbicidal effect grade: 5 (Herbicidal rate of 90% or more (almost completely withered))
Blackgrass [13]
  J: blackgrass, herbicidal effect grade: 4 (Herbicidal rate of 70% or more and less than 90%)
Blackgrass [14]
  herbicidal effect, J: blackgrass: 0 (Herbicidal rate of 5% or less (almost no effect))
Windgrass [15]
  herbicidal effect, L: windgrass: 1 (Herbicidal rate of 5% or more and less than 20%)
Redroot pigweed [16]
  N: redroot pigweed, herbicidal effect grade: 5 (Herbicidal rate of 90% or more (almost completely withered))
Redroot pigweed [17]
  herbicidal effect, N: redroot pigweed: 5 (Herbicidal rate of 90% or more (almost completely withered))
Velvetleaf [18]
  M: velvetleaf, herbicidal effect grade: 5 (Herbicidal rate of 90% or more (almost completely withered))
False cleavers
  herbicidal effect, Q: false cleavers: 0 (Herbicidal rate of 5% or less (almost no effect))
Persian speedwell [19]
  R: persian speedwell, herbicidal effect grade: 5 (Herbicidal rate of 90% or more (almost completely withered))
Southern crabgrass [20]
  F: southern crabgrass, herbicidal effect grade: 0 (Herbicidal rate of 5% or less (almost no effect))
Lambsquarters [21]
  O: lambsquarters, herbicidal effect grade: 5 (Herbicidal rate of 90% or more (almost completely withered))
Barnyard grass [22]
  herbicidal effect, H: barnyard grass: 1 (Herbicidal rate of 5% or more and less than 20%)
Southern crabgrass [23]
  herbicidal effect, F: southern crabgrass: 0 (Herbicidal rate of 5% or less (almost no effect))
Persian speedwell [24]
  herbicidal effect, R: persian speedwell: 4 (Herbicidal rate of 70% or more and less than 90%)
Barnyard grass [25]
  H: barnyard grass, herbicidal effect grade: 5 (Herbicidal rate of 90% or more (almost completely withered))
